According to patent US20250282768A1 (Janssen Pharmaceutica NV, priority 2022, published 2025):

System: p-IKKa levels in L363 (NIK translocated multiple myeloma) cells
Assay: Assay 2: Effect of compounds on p-IKKa levels in L363 (NIK translocated multiple myeloma) cells
Type: cell-based
Details: Homo sapiens, L-363, 6 h, read-out: Assay 2 IC50 (nM), p-IKKa (Ser 176/180) in BAFF stimulated L363 cells with MG132, 6 h; average if tested more than once
Procedure, shortened: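 Read-out is p-IKKa Ser176/180 by AlphaLISA SureFire in lysates. Cells were BAFF-primed (250 ng/ml) overnight or left unstimulated, then exposed 6 h at 37 °C to compound with MG132 (10 μM), 0.3% DMSO. IC50 from sigmoidal curve fit, normalized between stimulated and unstimulated controls.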

Row | Compound | IC50 [nM]
1 | CN1CC[C@@](O)(c2cc(-c3cccc(-c4ccnc(Nc5cc6n(n5)CC(C)(C)OC6)n4)n3)no2)C1=O [Example 192, (R)-3-(3-(6-(2-((6,6-Dimethyl-6,7-dihydro-4H-pyrazolo[5,1-c][1,4]oxazin-2-yl)amino)pyrimidin-4-yl)pyridin-2-yl)isoxazol-5-yl)-3-hydroxy-1-methylpyrrolidin-2-one] | < 50
2 | CN1CC[C@@](O)(c2csc(-c3cccc(-c4ccnc(Nc5ccn(C)n5)n4)n3)n2)C1=O (single isomer, unassigned) [Example 81] | > 500
3 | COCn1ncc(Nc2nccc(-c3cccc(-c4cc([C@]5(O)CCN(C)C5=O)on4)n3)n2)n1 [Example 311, (R)-3-Hydroxy-3-(3-(6-(2-((2-(methoxymethyl)-2H-1,2,3-triazol-4-yl)amino)pyrimidin-4-yl)pyridin-2-yl)isoxazol-5-yl)-1-methylpyrrolidin-2-one] | < 50
4 | Cc1cc(C(C)Nc2nccc(-c3cccc(-c4cc([C@]5(O)CCN(C)C5=O)on4)n3)n2)n[nH]1 (stereo partly drawn) [Example 379, (3R)-3-Hydroxy-1-methyl-3-(3-(6-(2-((1-(5-methyl-1H-pyrazol-3-yl)ethyl)amino)pyrimidin-4-yl)pyridin-2-yl)isoxazol-5-yl)pyrrolidin-2-one] | 50 to 500
5 | CN1C(=O)[C@](O)(c2cc(-c3cccc(-c4ccnc(Nc5cnn6c5CCC6)n4)n3)no2)[C@H]2C[C@H]21 [Example 133, (1R,4R,5S)-4-(3-(6-(2-((5,6-Dihydro-4H-pyrrolo[1,2-b]pyrazol-3-yl)amino)pyrimidin-4-yl)pyridin-2-yl)isoxazol-5-yl)-4-hydroxy-2-methyl-2-azabicyclo[3.1.0]hexan-3-one] | < 50
6 | C[C@H](Nc1nccc(-c2cccc(-c3cc([C@]4(O)CCN(C)C4=O)on3)n2)n1)c1cnn(C)c1 (single isomer, unassigned) [Example 70] | > 500
7 | [2H]C([2H])([2H])C([2H])([2H])n1cc(Nc2nccc(-c3cccc(-c4cc([C@]5(O)CCN(C)C5=O)on4)n3)n2)cn1 [Example 74, (R)-3-(3-(6-(2-((1-(Ethyl-d5)-1H-pyrazol-4-yl)amino)pyrimidin-4-yl)pyridin-2-yl)isoxazol-5-yl)-3-hydroxy-1-methylpyrrolidin-2-one] | < 50
8 | CN1CC[C@](O)(c2cn(-c3cccc(-c4ccnc(Nc5cnn(C)c5Cl)n4)n3)cn2)C1=O (single isomer, unassigned) [Example 108] | 50 to 500
9 | CN1CC[C@@](O)(c2cc(-c3cccc(-c4ccnc(Nc5cnn(C6CC6)c5)n4)n3)no2)C1=O [Example 124, (R)-3-(3-(6-(2-((1-Cyclopropyl-1H-pyrazol-4-yl)amino)pyrimidin-4-yl)pyridin-2-yl)isoxazol-5-yl)-3-hydroxy-1-methylpyrrolidin-2-one] | < 50
10 | Cc1noc(C)c1Nc1nccc(-c2cccc(-c3cc([C@]4(O)CCN(C)C4=O)on3)n2)n1 [Example 236, (R)-3-(3-(6-(2-((3,5-Dimethylisoxazol-4-yl)amino)pyrimidin-4-yl)pyridin-2-yl)isoxazol-5-yl)-3-hydroxy-1-methylpyrrolidin-2-one] | 50 to 500
11 | CN1CC[C@@](O)(c2cc(-c3cccc(-c4ccnc(Nc5cn(CC(F)F)nc5OC5CC5)n4)n3)no2)C1=O [Example 28, (R)-3-(3-(6-(2-((3-Cyclopropoxy-1-(2,2-difluoroethyl)-1H-pyrazol-4-yl)amino)pyrimidin-4-yl)pyridin-2-yl)isoxazol-5-yl)-3-hydroxy-1-methylpyrrolidin-2-one] | < 50
12 | CN1CC[C@@](O)(c2cc(-c3cccc(-c4ccnc(N[C@@H]5CC6CCC5O6)n4)n3)no2)C1=O (stereo partly drawn) [Example 361, (3R)-3-(3-(6-(2-(((cis)-7-Oxabicyclo[2.2.1]heptan-2-yl)amino)pyrimidin-4-yl)pyridin-2-yl)isoxazol-5-yl)-3-hydroxy-1-methylpyrrolidin-2-one] | 50 to 500
